For data set [1], the system named is APP/PS1 mice. The experiment in a line: Ca2+ imaging in APP/PS1 mice. Also noted: species or system mouse.
In a further data set the test system is ryanodine receptor. As to the kind of experiment: Selectivity test on ryanodine receptor. The data set is classed as biochemical. Conditions: selectivity for SERCA.
For a further data set, the system named is Na/K-ATPase. As to the kind of experiment: Selectivity test on Na/K-ATPase. Conditions: selectivity for SERCA. The data set is classed as biochemical.
Data set [2] relates to activating transcription factor 6 (ATF6). The experiment in a line: qPCR of ER-stress marker ATF6 mRNA in hippocampus of treated APP/PS1 mice. Conditions: 30 mg/kg oral gavage 3 times per week for 8 weeks, vs untreated APP/PS1, normalized to Cyclophilin, mean ± SD. The data set is classed as in vivo, mouse. An excerpt: (§1) As previously established in Alzheimer’s disease (AD) research, ER stress is an apparent consequence of protein misfolding within AD pathophysiology. In response to this ER stress, cells activate a group of signaling pathways known as the unfolded protein response (UPR) that aims to restore ER function so the cell may survive. […] We examined the mRNA expression levels of these ER-stress markers in the hippocampus of APP/PS1 mice treated with NUCC-0226446, NUCC-0226614, NUCC-0226646, and NDC-1173 compounds compared to untreated APP/PS1 mice utilizing real-time quantitative PCR using primer sets indicated in Table 2. There was significant reduction (p = 0.0002) in the ER-stress marker, Chop, after treatment with NDC-1173 compared to untreated APP/PS1 mice (n = 9–11) (Figure 4, Table 3). […]
(§2) At 10 months of age, mice were rapidly decapitated, and the entire hippocampus was dissected and snap-frozen using liquid nitrogen. […] Total RNA concentration and purity was then measured using a NanoDrop spectrophotometer. […] Data were exported from the RT PCR machine into an excel worksheet. %CVs were calculated between triplicate well CT values to rule out technical outliers. […] Relative expression was then analyzed following the comparative CT method ( 2^−∆∆CT method).

The test system of data set [3] is X-box binding protein 1 spliced variant (XBP1spl). The experiment in a line: qPCR of ER-stress marker XBP1spl mRNA in hippocampus of treated APP/PS1 mice. Conditions: 30 mg/kg oral gavage 3 times per week for 8 weeks, vs untreated APP/PS1, normalized to Cyclophilin, mean ± SD. It counts as in vivo, mouse.
Excerpt: as §1, §2
On the technique in general: Real-time PCR tracks product formation cycle by cycle.

Data set [4] deals with APP/PS1 mice. As to the kind of experiment: Morris water maze (training and probe trial). The data set is classed as in vivo, mouse. Conditions: 30 mg/kg oral gavage 3 times per week for 8 weeks. The protocol:
(§3) To evaluate the effects of NUCC-0226446, NUCC-0226614, NUCC-0226646, and NDC-1173 on cognitive readouts in the AD mouse model, we treated APP/PS1 male and female mice with vehicle (10%DMSO/10%Tween80 in water) or SERCA PAMs (30 mg/kg) via oral gavage three times per week for 8 weeks, starting at 6 months of age. Open-field, object-recognition, and water maze assays were performed following treatment with 8-month-old mice. To test for locomotor activity changes in response to SERCA PAMs treatment in APP/PS1, we used the open-field test. The results obtained with NUCC-0226446, NUCC-0226614, NUCC-0226646 are shown in Supplementary Figure S1 and results with NDC-1173 are shown in Figure 3. […] There was a significant sex difference in the open field (F(1,27) = […]), but there was no sex by treatment interaction found.
(§4) Vehicle or NDC 1173 was administered via oral gavage 3 times per week for 8 weeks at a dose of 30 mg/kg in a vehicle containing 10%DMSO/10%Tween80 in water at a 3 mg/mL concentration. […]
The water maze consisted of 3 phases pre-training, training, and probe trial. […] Ethovision XT (Version 15) tracking software recorded the latency to the platform. […] During the probe trial, the platform was not present within the pool and the search pattern of the mouse is measured. […]

Data set [5] has as its system APP/PS1 mice. As to the kind of experiment: Object recognition task. It counts as in vivo, mouse. Conditions: 30 mg/kg oral gavage 3 times per week for 8 weeks, test 24 h after training. The protocol:
as §3, §4
The object recognition task (OR) was performed as previously described. […] Interaction was determined by the length of time the mouse’s nose was within 1 cm of a tightly drawn zone around each object. […] Time spent interacting with each object was then measured using Ethovision XT software (Version 15). […]

Data set [6] relates to APP/PS1 mice. The experiment in a line: Tolerability during 8 weeks of administration. The data set is classed as in vivo, mouse. Conditions: 30 mg/kg oral gavage 3 times per week for 8 weeks. The protocol: Vehicle or NDC 1173 was administered via oral gavage 3 times per week for 8 weeks at a dose of 30 mg/kg in a vehicle containing 10%DMSO/10%Tween80 in water at a 3 mg/mL concentration. The dose was chosen so that the drug would be on board while the first signs of amyloid plaques appear (6 mos) and before the time the disease had fully progressed. We chose to administer the drug 3 times per week to cause minimal stress to the mouse.

Data set [7] relates to binding immunoglobulin protein (BiP/Grp78). As to the kind of experiment: qPCR of ER-stress marker BiP mRNA in hippocampus of treated APP/PS1 mice. The data set is classed as in vivo, mouse. Conditions: 30 mg/kg oral gavage 3 times per week for 8 weeks, vs untreated APP/PS1, normalized to Cyclophilin, mean ± SD.
Excerpt: as §1, §2

For data set [8], the system named is C/EBP homologous protein (CHOP/Ddit3). The experiment in a line: qPCR of ER-stress marker CHOP mRNA in hippocampus of treated APP/PS1 mice. It counts as in vivo, mouse. Conditions: 30 mg/kg oral gavage 3 times per week for 8 weeks, vs untreated APP/PS1, normalized to Cyclophilin, mean ± SD.
Excerpt: as §1, §2

Data set [9] can be described thus: Pharmacokinetics in CD-1 mice (plasma and brain). It counts as in vivo, mouse. The protocol: Pharmacokinetics of NDC-1173 were assessed in CD-1 mice. The compound was formulated at 1 mg/mL in DMSO/Tween 80/water (10/10/80, vol/vol/vol) and dosed at 2 mg/kg intravenously (i.v.) or 10 mg/kg via oral gavage (P.O.) in triplicate. Blood was drawn at 0.25 h, 0.5 h, 1 h, 2 h, 4 h, 8 h, and 24 h into EDTA-containing tubes, and plasma was harvested via centrifugation. Plasma (10 μL) containing 50% acetonitrile in water (5 μL) was added to 200 µL of ACN containing an internal standard. The samples were vortexed for 30 s. After centrifugation at 4 °C and 4000 rpm for 15 min, the supernatant was diluted 3 times with water. Then, 20 µL of diluted supernatant was injected into the LC/MS/MS system for quantitative analysis. The samples were injected onto an Agilent ZORBAX XDB-Phenyl 5 μ column (50 × 2.10 mm). Mobile Phase A was water with 0.1% formic acid. Mobile Phase B was acetonitrile with 0.1% formic acid. Separation was achieved using a gradient of 70% A/30% B to 0% A/100% B over 2.10 min. A Shimadzu LCMS-8050 equipped with a turbo ion spray source was used for all analytical measurements. Data were fit using WinNonLin https://www.certara.com/software/phoenix-winnonlin/, accessed on 1 May 2023.

In a further data set the test system is L-type Ca channel. As to the kind of experiment: Selectivity test on L-type Ca channel. It counts as biochemical. Conditions: selectivity for SERCA.
Data set [10] has as its system activating transcription factor 4 (ATF4). As to the kind of experiment: qPCR of ER-stress marker ATF4 mRNA in hippocampus of treated APP/PS1 mice. Conditions: 30 mg/kg oral gavage 3 times per week for 8 weeks, vs untreated APP/PS1, normalized to Cyclophilin, mean ± SD. The data set is classed as in vivo, mouse.
Excerpt: as §1, §2

Where [11] appears, read: CD-1, mouse, plasma, oral administration 10 mg/kg.

Like-named read-outs stand apart in the source and are kept apart here.

Data on two compounds can be found in article PMC10341805, “Positive Allosteric Modulator of SERCA Pump NDC-1173 Exerts Beneficial Effects in Mouse Model of Alzheimer’s Disease” (International Journal of Molecular Sciences, 2023).

As to `Cc1ccc2cccc(NC(=O)c3ccc(OC(C)C)cc3)c2n1` [CDN-1163], the “Effect on Ca2+ homeostasis” value in the data set on APP/PS1 mice [1] is on record as “restores normal Ca^2+ homeostasis”.

As usually defined, the AUC is concentration integrated over time. As a reminder, the Cmax is the maximum level reached in the sampled fluid or tissue. In general, bioavailability refers to the share of a dose that reaches the circulation, judged against a reference dose that is usually intravenous. Regarding `COc1c(C)cccc1C(=O)Nc1cccc2ccc(C)nc12` [NDC-1173, 2-methoxy-3-methyl-N-(2-methylquinolin-8-yl)benzamide], the “Functional effect on ryanodine receptor” value in the data set with ryanodine receptor is “no significant functional effects”. In addition, the “Functional effect on Na/K-ATPase” value in the data set with Na/K-ATPase is given as “no significant functional effects”. The “Fold-change of ATF6 mRNA expression” value in data set [2] stood at 0.79 ± 0.327. For the same compound, the “Fold-change of XBP1spl mRNA expression” value in data set [3] is on record as 0.72 ± 0.577. Further, the “Spatial learning in water maze training (4 days) vs vehicle” value with APP/PS1 mice [4] is given as “did not have better performance in spatial learning”. Also, the “Spatial memory in water maze probe trial (time in target quadrant) vs vehicle” value in the data set on APP/PS1 mice [4] (24 h after last training) was “spent more time in the quadrant where the escape platform was located”. The “Object memory (time spent with novel object) vs vehicle” value in the data set on APP/PS1 mice [5] is reported as “significant increase in time spent with the novel object”. The “Adverse effects or weight loss” value in the data set with APP/PS1 mice [6] was “no adverse effects or weight loss”. Moreover, the “Fold-change of BiP mRNA expression” value in data set [7] was determined as 0.74 ± 0.401. Also, the “Fold-change of CHOP mRNA expression” value in [8] amounted to 0.52 ± 0.195. Further, the half-life in data set [9] (CD-1, mouse, brain, oral administration 10 mg/kg, read-out: Brain t1/2 (converted)) is 1.1 h. Moreover, the Kp in [9] (CD-1, mouse, brain/plasma, oral administration 10 mg/kg, read-out: Brain/plasma ratio) came out at 2.8. Moreover, in data set [9] (setting [11]), the AUC stood at 375 ng·h/mL and the Cmax came to 1250 nM. For the same compound, the half-life in [9] (CD-1, mouse, plasma, oral administration 10 mg/kg, read-out: Plasma t1/2 (converted)) is 0.9 h. The same compound yielded a bioavailability in data set [9] (CD-1, mouse, plasma, oral, 10 mg/kg P.O. vs 2 mg/kg i.v.) of 25.6%. In data set [9] (oral administration 10 mg/kg), the “Brain concentration at 2 h” value amounted to 2500 nM. Moreover, in the data set with L-type Ca channel, the “Functional effect on L-type Ca channel” value is reported as “no significant functional effects”. The “Fold-change of ATF4 mRNA expression” value in [10] stood at 1.17 ± 0.496.
